Cc1cc(C#N)c(Nc2ccccc2[N+](=O)[O-])s1
solubility (mole fraction) (in DMSO, 292.15 K): 0.0519 | solubility (mole fraction) (in DMSO, 297.15 K): 0.0588 | solubility (mole fraction) (in DMSO, 301.15 K): 0.0671 | solubility (mole fraction) (in DMSO, 306.15 K): 0.0734 | solubility (mole fraction) (in DMSO, 310.15 K): 0.0801 | solubility (mole fraction) (in DMSO, 316.15 K): 0.0913 | solubility (mole fraction) (in DMSO, 320.15 K): 0.101 | solubility (mole fraction) (in DMSO, 325.15 K): 0.112 | solubility (mole fraction) (in DMSO, 328.15 K): 0.123 | solubility (mole fraction) (in DMSO, 332.15 K): 0.135 | solubility (mole fraction) (in acetic acid, 293.15 K): 0.00487 | solubility (mole fraction) (in acetic acid, 297.15 K): 0.00588 | solubility (mole fraction) (in acetic acid, 302.15 K): 0.00725 | solubility (mole fraction) (in acetic acid, 307.15 K): 0.00881 | solubility (mole fraction) (in acetic acid, 311.15 K): 0.0109 | solubility (mole fraction) (in acetic acid, 316.15 K): 0.0127 | solubility (mole fraction) (in acetic acid, 320.15 K): 0.0159 | solubility (mole fraction) (in acetic acid, 325.15 K): 0.0202 | solubility (mole fraction) (in acetic acid, 329.15 K): 0.0248 | solubility (mole fraction) (in acetic acid, 333.15 K): 0.0306 | solubility (mole fraction) (in acetone, 292.15 K): 0.0262 | solubility (mole fraction) (in acetone, 296.15 K): 0.0322 | solubility (mole fraction) (in acetone, 302.15 K): 0.0377 | solubility (mole fraction) (in acetone, 305.15 K): 0.0444 | solubility (mole fraction) (in acetone, 311.15 K): 0.0513 | solubility (mole fraction) (in acetone, 316.15 K): 0.0604 | solubility (mole fraction) (in ethanol, 292.15 K): 0.00106 | solubility (mole fraction) (in ethanol, 296.15 K): 0.00131 | solubility (mole fraction) (in ethanol, 302.15 K): 0.00163 | solubility (mole fraction) (in ethanol, 306.15 K): 0.00214 | solubility (mole fraction) (in ethanol, 311.15 K): 0.00274 | solubility (mole fraction) (in ethanol, 315.15 K): 0.00345 | solubility (mole fraction) (in ethanol, 320.15 K): 0.00427 | solubility (mole fraction) (in ethanol, 325.15 K): 0.00528 | solubility (mole fraction) (in ethanol, 329.15 K): 0.00638 | solubility (mole fraction) (in ethanol, 334.15 K): 0.00766 | solubility (mole fraction) (in ethyl acetate, 293.15 K): 0.0199 | solubility (mole fraction) (in ethyl acetate, 296.15 K): 0.0227 | solubility (mole fraction) (in ethyl acetate, 302.15 K): 0.0255 | solubility (mole fraction) (in ethyl acetate, 306.15 K): 0.0315 | solubility (mole fraction) (in ethyl acetate, 311.15 K): 0.0379 | solubility (mole fraction) (in ethyl acetate, 315.15 K): 0.0442 | solubility (mole fraction) (in ethyl acetate, 320.15 K): 0.0494 | solubility (mole fraction) (in ethyl acetate, 324.15 K): 0.0591 | solubility (mole fraction) (in ethyl acetate, 329.15 K): 0.0713 | solubility (mole fraction) (in ethyl acetate, 333.15 K): 0.0858 | solubility (mole fraction) (in methanol, 292.15 K): 0.00109 | solubility (mole fraction) (in methanol, 297.15 K): 0.00145 | solubility (mole fraction) (in methanol, 302.15 K): 0.00186 | solubility (mole fraction) (in methanol, 306.15 K): 0.00233 | solubility (mole fraction) (in methanol, 311.15 K): 0.00291 | solubility (mole fraction) (in methanol, 315.15 K): 0.00368 | solubility (mole fraction) (in methanol, 320.15 K): 0.00464 | solubility (mole fraction) (in methanol, 324.15 K): 0.00575
